This passage reports Internalization, IC50 and EC50 results from patent publication US20250340529A1, “Heterocyclic Compounds as Immunomodulators of PD-L1 Interactions” (Ascletis BioScience Co., Ltd, priority 2021, published 2025).

One assay has as its target PD-L1/CHO-K1 cells (Homo sapiens (Human), UniProt Q9NZQ7). As to the kind of experiment: PD-L1 internalization (FACS, PD-L1/CHO-K1 cells). Conditions: % activation of PD-L1 internalization = 1 − PD-L1 signal; 17 hours incubation. In kind it is cell-based. The method, then: Day 1. Seeding cells: Digest the PD-L1/CHO-K1 cells by trypsin in the flask, then counting the cell number and diluted to 1×10^5 cells/ml. Seeding cells to 6 well plate (Corning, #3516), 2 mL/well. The plates were incubated at 37° C., […] incubator for 24 hours.
Day 2. Preparing compounds and treated cells: Dilute GLC01-258 from 15 mM to 0.5 mM by using DMSO, and 15 mM compound were serial diluted from 15 mM˜15 nM by DMSO, Then 500 times dilute the compounds by using assay buffer. Prepare 0.2% DMSO in assay buffer used for Vehicle control and low control. Take out the plates, aspirated the medium and thrown away. Adding 2 mL of the diluted compounds, vehicle control and low control to corresponding wells. Then incubated the plates for 17 hours at 37° C., 5% CO2 incubator.
Day 3. Preparing samples for FACS: After 17 hours incubation, discarded medium and washed by the PBS. Cells in each well were Digested by trypsin. Centrifuge and discard the supernatant, then wash the cells by DPBS (Ca^2+, Mg^2+ free) for twice. 10 fold dilute the antibody (PE-conjugated mouse anti-human CD274) by DPBS, then adding the staining solution to compounds treated samples and vehicle control sample. The low control only add DPBS without antibody. Incubate the plates at room temperature for 20 minutes and protect from light. After 20 minutes, wash the samples by DPBS for twice. Then centrifuge and discard the supernatant. Resuspend cells by 300 uL DPBS and transfer the samples to 5 mL Polystryrene Round-Bottom Tube (Falcon, #352054), then tested by BD FACSCanto. […].
Set the PD-L1 signal of vehicle control as 100%, PD-L1 signal of Low control as 0%. Then calculate the compound treated samples' PD-L1 signal
0% PD-L1 signal: Low control which stained without anti-CD274
100% PD-L1 Signal: vehicle control which stained with anti-CD274
The % activation of PD-L1 Internalization=1−PD-L1 signal of compound.

The target in the next assay is PD-1/PD-L1 (Homo sapiens (Human), UniProt Q9NZQ7). The experiment in a line: PD-1/PD-L1 Homogeneous Time-Resolved Fluorescence (HTRF) binding assay. The conditions noted are these: 3 nM PD1, 10 nM PD-L1, 25° C., PBS pH 7.4. Summed up: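 HTRF with His-tagged human PD-L1 (19-238, 10 nM) and Fc-tagged human PD-1 (25-167, 3 nM) preincubated with inhibitors 40 min in PBS pH 7.4, 0.05% Tween-20, 0.1% BSA, 1% DMSO, 25° C. Eu anti-human IgG and anti-His-APC added, 60 min; 665/620 nm ratio; IC50 from percent control activity fit.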
In general terms: TR-FRET usually uses a lanthanide donor and a delayed reading to cut background.

The target of assay [1] is extracellular domains of PD-L1 (Homo sapiens (Human), UniProt Q9NZQ7). As to the kind of experiment: PD-L1 dimerization (biochemical protein-protein interaction assay). The conditions noted are these: PDL1-Eu and PDL1-A2, 25° C., 120 min. How it is done: Compounds were tested in biochemical protein-protein interaction assays to determine if they can specifically dimerize the extracellular domains of PD-L1. • (1) Dilute cpd 1:3 in succession in DMSO for each column for 10±0 pts (refer to dilution plate map) • (2) Transfer 0.2 μL cpds solution in each row to 384 assay plate using Echo, each column containing 2 replicates (refer to assay plate map). • (3) Add 20 μL prepared mixture include PDL1-Eu and PDL1-A2 solution to assay plate, centrifuge at 1000 rpm for 1 min. • (4) Incubate at 25° C. for 120 min. • (5) Read fluorescence signal on Envision 2104 plate reader. • (6) Read the Ratio (665 nm/615 nm) signal on Envision. • (7) Analyze the raw data using the equation (V. Data analysis)

The test system of assay [2] is Hep3B-OS8-hPDL1 cells and CD3+ T cells. As to the kind of experiment: Hep3B-OS8-hPDL1 and T cells co-culture assay (IFN-γ by ELISA). In kind it is cell-based. The conditions noted are these: Homo sapiens, T-cell, 72 hours, read-out: Tumor and T Cell EC50 (nm). The method, then:
a. Hep3B-OS8-hPDL1 and T Cells Co-Culture Assay
• 1. Hep3B-OS8-hPDL1 cells were cultured in 1640 medium supplemented with 10% fetal bovine serum, 1% penicillin and streptomycin, in which 100 μg/mL G418 and Hygromycin B were also added. • 2. Hep3B-OS8-hPDL1 cells were harvested and treated with 10 μg/mL mitomycin C at 37° C. for 1.5 h, and the cells were then washed thoroughly with PBS for four times. • 3. Cells were re-suspended with RPMI 1640 medium containing 10% FBS and the cell density was adjusted to 5E5 cells/mL. • 4. Cells were seeded into 96-well flat bottom plate (2.5E4 cells/50 μL/well). b. CD3+ T Cells Isolation (30 mL Blood) • 5. The human blood sample from an individual donor is diluted by the same volume of sterile PBS, for instance add 25 mL sterile PBS into 25 mL fresh whole blood and mix sufficiently by gentle shake. • 6. Transfer 15 mL Lymphoprep medium into a new 50 mL centrifuge tube. • 7. Add the diluted blood sample as soft as possible onto the surface of the Ficoll medium to make sure there is a clear dividing line between the two liquids, and the volume ratio between Ficoll and diluted blood (30 mL) is 1:2. • 8. Move the tube gently to centrifuge, at 1000×g, 25 min, 20° C., with the acceleration (5) and Min deceleration (0) settings during the centrifugation. • 9. Four interfaces in all could be observed after the centrifugation, which are layers of plasma, mononuclear cells, the Ficoll medium and RBCs from top to bottom, and move the tube as gently as possible so as keep the four interfaces separated. Absorb and transfer the second layer of mononuclear cells into another new sterile centrifuge tube carefully, and absorb certain volume of plasma instead of the Ficoll medium if inevitable. • 10. Add sterile PBS of the three times the volume of PBMCs in the tube with PBMC. • 11. Wash the cells twice with 5-10 mL PBS before cell counting with cytometer. Centrifuge at 350×g, 10 min, 20° C. With the acceleration (5) and deceleration (5) settings during the centrifugation. • 12. Resuspend the cells with recommended medium and adjust the density of the PBMCs to the final concentration of 5E7 cells/mL. • 13. Isolate CD3+ T cells with EasySep™ Human T Cell Isolation Kit (STEMCELL Technologies #17951), and the cells were seeded into 96-well flat bottom plate (5E4 cells/100 μL/well). c. Compounds solutions preparation • 14. Prepare the Compounds dilutions in RPMI 1640 medium with 10% FBS according to the Layout. 15. Add compounds into each well in a volume of 50 μL. {3 compounds (GLC01-258, GLC01-269, GLC01-465) in 7 concentrations (0.03, 0.1, 0.3, 1, 3, 10 and 30 μM) and 6 compounds (GLC01-411, GLC01-292, GLC01-445, GLC01-475, GLC01-470 and GLC01-468) in the same concentration (1 μM)}. • 16. […]

Each structure is given as a SMILES string.

Chain of extracellular domains of PD-L1 (Q9NZQ7 19-238): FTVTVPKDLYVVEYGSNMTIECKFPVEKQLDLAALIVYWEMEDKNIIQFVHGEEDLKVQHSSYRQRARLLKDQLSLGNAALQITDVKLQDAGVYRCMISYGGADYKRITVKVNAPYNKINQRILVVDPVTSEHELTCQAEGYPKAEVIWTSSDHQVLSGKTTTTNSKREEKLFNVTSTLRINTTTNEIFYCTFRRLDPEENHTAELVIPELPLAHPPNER
Chain of PD-1/PD-L1 (Q9NZQ7 19-238): as above
Chain of PD-L1/CHO-K1 cells (Q9NZQ7 19-290): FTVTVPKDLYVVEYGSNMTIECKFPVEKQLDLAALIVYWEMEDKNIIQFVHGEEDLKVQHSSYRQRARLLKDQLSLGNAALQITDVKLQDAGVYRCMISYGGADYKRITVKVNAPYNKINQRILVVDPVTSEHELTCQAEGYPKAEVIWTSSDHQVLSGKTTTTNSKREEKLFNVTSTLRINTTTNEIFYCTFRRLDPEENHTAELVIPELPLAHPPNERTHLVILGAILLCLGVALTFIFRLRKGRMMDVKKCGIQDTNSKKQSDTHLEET

The IC50 is the point on the concentration scale where inhibition reaches its midpoint. The term EC50 denotes the concentration giving half of the maximal effect. `O=C(O)[C@H](CO)NCCN1C(=O)COc2cc(-c3cccc(-c4cccc(-c5ccc6c(c5)OCC(=O)N6C[C@@H]5CCCN5)c4Cl)c3Cl)ccc21` [Compound 533] yielded an Internalization at PD-L1/CHO-K1 cells of 32.70%. On PD-1/PD-L1, this molecule displayed an IC50 of 7.11 nM. For the same molecule, the half-maximal effective concentration (EC50) in assay [1] worked out at 91 nM; in assay [2], 6.03 nM.
`C[C@H]1CC[C@@H](CN2C(=O)COc3cc(-c4cccc(-c5cccc(-c6ccc7c(c6)OCC(=O)N7C[C@@H]6CC[C@H](C)N6)c5Cl)c4Cl)ccc32)N1` [Compound 535] showed an Internalization on PD-L1/CHO-K1 cells of 21.00%. This molecule also showed a half-maximal inhibitory concentration (IC50) on PD-1/PD-L1 of 4.41 nM. In addition, the midpoint of the response in assay [1], the EC50, lay at 354 nM.
As for `C[C@@H](CN1C(=O)COc2cc(-c3cccc(-c4cccc(-c5ccc6c(c5)OCC(=O)N6C[C@H](C)N[C@@H](CO)C(=O)O)c4Cl)c3Cl)ccc21)N[C@@H](CO)C(=O)O` [Compound 550], at PD-L1/CHO-K1 cells, the Internalization stood at 3.00%. Besides, the IC50 on PD-1/PD-L1 was determined as 3.96 nM. The same molecule showed an EC50 in assay [1] of 225 nM.
`O=C(O)[C@H](CO)NCCN1C(=O)COc2cc(-c3cccc(-c4cccc(-c5cc6c(cc5F)N(CCN[C@@H](CO)C(=O)O)C(=O)CO6)c4Cl)c3Cl)c(F)cc21` [Compound 554, (2S,2'S)-2,2′-((((2,2′-dichloro-[1,1′-biphenyl]-3,3′-diyl)bis(6-fluoro-3-oxo-2,3-dihydro-4H-benzo[b][1,4]oxazine-7,4-diyl))bis(ethane-2,1-diyl))bis(azanediyl))bis(3-hydroxypropanoic acid)]: on PD-L1/CHO-K1 cells, the Internalization is recorded as 23.20%. Also, the IC50 at PD-1/PD-L1 turned out to be 5.51 nM. The values for the EC50 in assay [1] and in assay [2] were 55.8 nM and 5.1 nM, respectively.
On PD-L1/CHO-K1 cells, `C[C@H](CN1C(=O)COc2cc(-c3cccc(-c4cccc(-c5ccc6c(c5)OCC(=O)N6C[C@@H](C)N[C@@H](CO)C(=O)O)c4Cl)c3Cl)ccc21)N[C@@H](CO)C(=O)O` [Compound 563, (2S,2'S)-2,2′-(((2R,2′R)-((2,2′-dichloro-[1,1′-biphenyl]-3,3′-diyl)bis(3-oxo-2,3-dihydro-4H-benzo[b][1,4]oxazine-7,4-diyl))bis(propane-1,2-diyl))bis(azanediyl))bis(3-hydroxypropanoic acid)] returned an Internalization of 25.50%. The molecule further came in with an IC50 on PD-1/PD-L1 of 7.18 nM. Besides, the EC50 in assay [1] is 37.7 nM.
As for `Cc1c(-c2ccc3c(c2)OCC(=O)N3CCN[C@@H](CO)C(=O)O)cccc1-c1cccc(-c2ccc3c(c2)OCC(=O)N3CCN[C@@H](CO)C(=O)O)c1C` [Compound 585], the Internalization at PD-L1/CHO-K1 cells worked out at 39.00%. The molecule further displayed a half-maximal inhibitory concentration (IC50) on PD-1/PD-L1 of 10.9 nM. The molecule also returned a 50% effective concentration (EC50) in assay [1] of 130 nM.
The corresponding values for `COC[C@H](NCCN1C(=O)COc2cc(-c3cccc(-c4cccc(-c5ccc6c(c5)OCC(=O)N6CCN[C@@H](COC)C(=O)O)c4Cl)c3Cl)ccc21)C(=O)O` [Compound 588] are 2.00%, 7.35 nM and 154 nM.
